Active and inactive are the calls of the source. Cut-off read from the data, not from the text of the source: actives have a measured IC50 and inactives only a lower limit.
target: Envelope glycoprotein gp160 (Human immunodeficiency virus 1, UniProt Q6QLK5); assay: inhibitors of HIV fusion peptide binding, primary screen, biochemical, uHTS, fluorescence dequenching (AID 1986)
Sequence (Q6QLK5 whole entry, the tested form may be a part): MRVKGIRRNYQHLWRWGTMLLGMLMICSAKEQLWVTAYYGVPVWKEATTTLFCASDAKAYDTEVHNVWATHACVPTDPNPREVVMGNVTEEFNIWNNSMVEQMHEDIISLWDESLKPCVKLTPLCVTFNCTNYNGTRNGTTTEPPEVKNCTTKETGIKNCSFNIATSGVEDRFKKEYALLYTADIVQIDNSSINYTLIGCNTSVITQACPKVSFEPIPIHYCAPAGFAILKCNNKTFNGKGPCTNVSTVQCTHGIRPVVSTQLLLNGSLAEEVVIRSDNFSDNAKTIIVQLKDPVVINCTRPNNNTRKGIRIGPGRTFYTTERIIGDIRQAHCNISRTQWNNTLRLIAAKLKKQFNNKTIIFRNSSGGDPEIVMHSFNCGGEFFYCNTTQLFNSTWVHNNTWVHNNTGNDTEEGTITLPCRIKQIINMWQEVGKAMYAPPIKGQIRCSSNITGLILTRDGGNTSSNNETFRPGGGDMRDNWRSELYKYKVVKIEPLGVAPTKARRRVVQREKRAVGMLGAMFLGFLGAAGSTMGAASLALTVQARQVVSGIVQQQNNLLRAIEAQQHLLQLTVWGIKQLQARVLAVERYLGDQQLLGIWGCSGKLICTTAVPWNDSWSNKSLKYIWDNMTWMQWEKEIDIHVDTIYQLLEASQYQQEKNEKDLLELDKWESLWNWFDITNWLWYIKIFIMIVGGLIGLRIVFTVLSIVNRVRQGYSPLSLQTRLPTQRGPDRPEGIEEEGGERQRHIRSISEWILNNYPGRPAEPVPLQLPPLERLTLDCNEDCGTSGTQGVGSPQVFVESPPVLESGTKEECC

SMILES	IC50
CCCCCCCCCCCCCCCC[n+]1ccn(CC(C)=O)c1	14.4 µM (active)
Cc1ccccc1NC1=NC(=O)/C(=C/c2cccn2-c2cccc(C(=O)O)c2)S1	11.3 µM (active)
O=C(Nc1ccc(-c2nc3ccccc3[nH]2)cc1)c1ccccc1NS(=O)(=O)c1ccc(F)cc1	24.6 µM (active)
